# According to ChEMBL document CHEMBL1201862, “PubChem BioAssay data set” (2004):
# Activity calls are given as the source filed them.
# Tests used:
# [1] = biological target: T1, High affinity choline transporter 1 (Homo sapiens, UniProt Q9GZV3); assay: CHT inhibitors, dose response, cell-based, 5-point CRC, membrane potential dye (AID 504840); format: functional
# T1 sequence (Q9GZV3 whole entry): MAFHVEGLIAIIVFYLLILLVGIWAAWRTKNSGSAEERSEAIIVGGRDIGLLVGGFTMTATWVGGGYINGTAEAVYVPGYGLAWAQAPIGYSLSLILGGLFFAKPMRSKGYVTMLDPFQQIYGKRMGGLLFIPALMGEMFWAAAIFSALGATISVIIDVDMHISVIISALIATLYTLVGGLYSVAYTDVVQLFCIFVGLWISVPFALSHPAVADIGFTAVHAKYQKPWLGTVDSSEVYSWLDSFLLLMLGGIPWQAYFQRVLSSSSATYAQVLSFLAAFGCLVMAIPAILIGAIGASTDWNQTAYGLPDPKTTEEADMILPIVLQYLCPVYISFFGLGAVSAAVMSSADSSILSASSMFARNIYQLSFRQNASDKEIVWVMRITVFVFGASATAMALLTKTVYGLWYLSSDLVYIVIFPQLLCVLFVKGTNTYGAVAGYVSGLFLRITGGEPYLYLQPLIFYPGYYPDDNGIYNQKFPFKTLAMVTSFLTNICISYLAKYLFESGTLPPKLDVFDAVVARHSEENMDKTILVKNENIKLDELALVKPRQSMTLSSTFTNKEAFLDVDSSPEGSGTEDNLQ
# [2] = biological target: T2, Short transient receptor potential channel 4 (Mus musculus, UniProt Q9QUQ5); assay: mouse TRPC4 channel activators, dose response, cell-based, HEK293 TRPC4/mu-opioid, Fluo-4 calcium (AID 434937); format: functional
# T2 sequence (Q9QUQ5 whole entry): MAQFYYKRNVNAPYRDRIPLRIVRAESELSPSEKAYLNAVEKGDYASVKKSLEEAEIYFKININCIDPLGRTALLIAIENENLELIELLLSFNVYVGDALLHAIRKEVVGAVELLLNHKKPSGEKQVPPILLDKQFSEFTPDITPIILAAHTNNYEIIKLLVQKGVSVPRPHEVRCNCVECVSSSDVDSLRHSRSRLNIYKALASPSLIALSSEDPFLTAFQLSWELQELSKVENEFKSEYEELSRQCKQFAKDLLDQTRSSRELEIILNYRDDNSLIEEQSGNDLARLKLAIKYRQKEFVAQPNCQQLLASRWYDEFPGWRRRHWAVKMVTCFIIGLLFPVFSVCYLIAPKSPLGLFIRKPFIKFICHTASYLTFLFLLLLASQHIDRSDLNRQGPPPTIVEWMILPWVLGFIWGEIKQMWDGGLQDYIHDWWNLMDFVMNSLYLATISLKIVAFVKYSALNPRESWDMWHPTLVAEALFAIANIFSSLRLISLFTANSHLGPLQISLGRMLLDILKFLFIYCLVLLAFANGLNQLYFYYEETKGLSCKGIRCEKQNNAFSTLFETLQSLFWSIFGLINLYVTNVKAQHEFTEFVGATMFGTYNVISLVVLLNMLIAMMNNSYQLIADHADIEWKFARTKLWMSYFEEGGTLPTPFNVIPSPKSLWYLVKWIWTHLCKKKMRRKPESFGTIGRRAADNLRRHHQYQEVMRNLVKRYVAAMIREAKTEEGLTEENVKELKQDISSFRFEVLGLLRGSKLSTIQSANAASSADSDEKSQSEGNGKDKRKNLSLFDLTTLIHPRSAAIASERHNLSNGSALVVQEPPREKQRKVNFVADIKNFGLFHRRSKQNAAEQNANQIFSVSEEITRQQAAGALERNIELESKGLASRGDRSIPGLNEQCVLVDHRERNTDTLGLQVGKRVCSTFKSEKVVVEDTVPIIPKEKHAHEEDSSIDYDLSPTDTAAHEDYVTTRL
# [3] = biological target: T3, Lysosomal acid glucosylceramidase (Homo sapiens, UniProt P04062); assay: Dose response cell-based high throughput screening assay to identify enhancers of beta-glucosidase activity. [Related pubchem assays: 784 ]; format: functional
# T3 sequence (P04062 whole entry): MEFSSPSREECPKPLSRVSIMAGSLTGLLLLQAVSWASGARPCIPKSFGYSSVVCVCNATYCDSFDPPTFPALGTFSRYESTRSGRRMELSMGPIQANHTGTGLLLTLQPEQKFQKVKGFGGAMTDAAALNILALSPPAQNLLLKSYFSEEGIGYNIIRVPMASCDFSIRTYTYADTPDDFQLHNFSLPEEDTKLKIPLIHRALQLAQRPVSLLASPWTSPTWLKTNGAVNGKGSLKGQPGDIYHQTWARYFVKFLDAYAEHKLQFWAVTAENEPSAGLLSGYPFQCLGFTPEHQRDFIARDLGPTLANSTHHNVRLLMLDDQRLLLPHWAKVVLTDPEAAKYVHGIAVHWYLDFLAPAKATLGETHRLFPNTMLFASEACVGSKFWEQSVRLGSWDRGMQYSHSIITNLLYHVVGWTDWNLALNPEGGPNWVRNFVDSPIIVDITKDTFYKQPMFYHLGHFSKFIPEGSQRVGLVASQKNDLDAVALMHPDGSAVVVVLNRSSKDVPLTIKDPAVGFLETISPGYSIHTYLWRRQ
# [4] = biological target: T4, Microphthalmia-associated transcription factor (Homo sapiens, UniProt O75030); assay: TRPM1 promoter luciferase signal decrease, dose response, MITF inhibitor project, cell-based, SK-MEL-5, cherry-picked, set 3 (AID 493073); format: functional
# T4 sequence (O75030 whole entry): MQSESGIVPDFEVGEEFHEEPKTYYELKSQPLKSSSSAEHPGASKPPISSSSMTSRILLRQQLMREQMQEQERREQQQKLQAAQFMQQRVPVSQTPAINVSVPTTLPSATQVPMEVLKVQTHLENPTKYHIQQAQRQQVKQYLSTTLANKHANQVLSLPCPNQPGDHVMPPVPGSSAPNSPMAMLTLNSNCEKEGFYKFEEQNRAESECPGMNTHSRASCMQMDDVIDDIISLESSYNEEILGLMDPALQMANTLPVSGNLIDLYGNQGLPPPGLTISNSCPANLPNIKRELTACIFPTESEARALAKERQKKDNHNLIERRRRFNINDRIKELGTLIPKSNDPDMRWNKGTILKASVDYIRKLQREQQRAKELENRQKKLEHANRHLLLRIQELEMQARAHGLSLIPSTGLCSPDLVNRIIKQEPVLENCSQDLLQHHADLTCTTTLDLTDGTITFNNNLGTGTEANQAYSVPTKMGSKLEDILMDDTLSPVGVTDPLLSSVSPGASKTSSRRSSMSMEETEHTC
# Protein RecA = biological target: T5, Protein RecA (Mycobacterium tuberculosis, UniProt P9WHJ3); assay: Fluorescence Cell-Free Homogeneous Dose Retest to Identify Inhibitors of RecA-Intein Splicing Activity. [Related pubchem assays (depositor defined):AID2097, AID2223, AID489010, AID492950]; format: functional
# T5 sequence (P9WHJ3 whole entry): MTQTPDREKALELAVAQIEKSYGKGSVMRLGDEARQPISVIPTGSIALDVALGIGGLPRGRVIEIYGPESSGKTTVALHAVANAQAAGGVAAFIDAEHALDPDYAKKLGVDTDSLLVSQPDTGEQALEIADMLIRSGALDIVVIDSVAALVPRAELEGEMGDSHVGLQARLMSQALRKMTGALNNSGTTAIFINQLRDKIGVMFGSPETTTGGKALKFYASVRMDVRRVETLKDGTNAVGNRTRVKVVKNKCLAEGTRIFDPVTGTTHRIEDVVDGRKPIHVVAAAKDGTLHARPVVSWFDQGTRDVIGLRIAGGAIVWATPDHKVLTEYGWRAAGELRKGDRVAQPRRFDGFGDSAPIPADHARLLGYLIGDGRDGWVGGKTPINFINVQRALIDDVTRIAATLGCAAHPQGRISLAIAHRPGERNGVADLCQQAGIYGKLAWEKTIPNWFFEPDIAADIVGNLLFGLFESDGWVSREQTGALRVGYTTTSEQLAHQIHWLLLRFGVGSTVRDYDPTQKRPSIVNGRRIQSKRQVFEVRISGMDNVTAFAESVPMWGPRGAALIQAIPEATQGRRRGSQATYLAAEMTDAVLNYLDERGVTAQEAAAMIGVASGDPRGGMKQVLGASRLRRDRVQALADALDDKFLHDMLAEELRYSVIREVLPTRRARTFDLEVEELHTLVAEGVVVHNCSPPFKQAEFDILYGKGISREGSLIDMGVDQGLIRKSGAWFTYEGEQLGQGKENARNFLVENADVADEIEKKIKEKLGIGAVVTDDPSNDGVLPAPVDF
# [5] = biological target: T6, Replicative DNA helicase DnaB (Mycobacterium tuberculosis, UniProt P9WMR3); assay: DnaB intein splicing inhibitors, dose response, biochemical, cell-free fluorescence (AID 449749); format: functional
# T6 sequence (P9WMR3 whole entry): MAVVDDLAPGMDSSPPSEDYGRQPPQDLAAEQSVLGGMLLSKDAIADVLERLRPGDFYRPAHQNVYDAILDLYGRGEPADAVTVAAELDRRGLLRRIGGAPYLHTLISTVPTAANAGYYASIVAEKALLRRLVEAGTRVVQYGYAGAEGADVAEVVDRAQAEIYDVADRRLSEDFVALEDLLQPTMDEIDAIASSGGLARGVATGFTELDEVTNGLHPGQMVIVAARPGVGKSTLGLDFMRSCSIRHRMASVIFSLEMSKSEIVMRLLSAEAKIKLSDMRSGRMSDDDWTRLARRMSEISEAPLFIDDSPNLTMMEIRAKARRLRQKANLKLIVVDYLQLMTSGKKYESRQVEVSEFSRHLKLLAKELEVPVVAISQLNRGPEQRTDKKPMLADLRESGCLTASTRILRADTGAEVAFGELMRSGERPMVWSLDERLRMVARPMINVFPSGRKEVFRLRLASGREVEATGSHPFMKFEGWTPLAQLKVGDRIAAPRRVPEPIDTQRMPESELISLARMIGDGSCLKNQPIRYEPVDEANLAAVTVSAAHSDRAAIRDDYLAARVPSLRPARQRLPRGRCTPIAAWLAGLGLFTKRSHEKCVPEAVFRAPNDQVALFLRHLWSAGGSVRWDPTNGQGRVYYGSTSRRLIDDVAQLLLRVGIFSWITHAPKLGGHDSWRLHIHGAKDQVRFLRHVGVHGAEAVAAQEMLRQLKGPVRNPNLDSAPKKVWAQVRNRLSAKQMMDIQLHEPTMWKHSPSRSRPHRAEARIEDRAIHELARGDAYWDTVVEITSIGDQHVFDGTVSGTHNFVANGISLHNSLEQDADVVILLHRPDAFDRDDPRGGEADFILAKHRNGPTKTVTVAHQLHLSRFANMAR
# Vero [6] = assay: cells; format: functional, cell-based; conditions: Chlorocebus sabaeus
# Vero [7] = assay: cells; format: functional; conditions: Chlorocebus sabaeus
# [8] = tested on: Streptococcus sp. 'group A'; assay: growth inhibition of control SK(-) GAS strain, dose response, counter-screen for streptokinase expression inhibitor project, luminescence, kanamycin, BacTiterGlo, confirmation (AID 1900); format: functional, organism-based
# Streptococcus = assay: Group A Streptococcus viability loss, dose response, counter-screen for streptokinase expression inhibitor project, luminescence, BacTiterGlo (AID 1915); format: functional, organism-based;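 further: potency for reduction of bacterial viability or growth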
smiles,measurement,setting,value
CCOC(=O)c1cc(NC(=O)c2ccoc2C)cc(C(=O)OCC)c1,IC50,[1],14.5 µM (active)
CCOC(=O)C1(c2ccccc2)CCN(CCC(=O)Nc2ccccc2OC)CC1,EC50,[2],1.88 µM (active)
CN1CCN(C(=O)CCCN2C(=O)/C(=C/c3ccccc3)SC2=S)CC1,IC50,[1],13.5 µM (active)
CCn1c(CCNC(=O)c2ccc(Cl)cc2)nnc1SCC(=O)NC1CCCC1,EC50,[3],> 50 µM (not active)
Cc1ccc2c(c1)[C@H]1OCC[C@H]1[C@@H](c1ccncc1)N2,EC50,[3],> 10 µM (not active)
COc1ccc2c(c1O)[C@]13CCN(C)[C@H](C2)[C@@H]1CCC(=O)C3,EC50,[2],0.0427 µM (active)
CCN(Cc1ccc(OC)c(F)c1)C(=O)CCl,AC50,[4],3.36 µM (active)
same,EC50,Protein RecA,5.37 µM (active)
same,AC50,[5],162 µM (active)
Cc1oc(-c2ccccc2)cc1C(=O)Nc1cccc(/C=C\C(=O)O)c1,IC50,[1],11.2 µM (active)
N=C(N)Nc1nc(C2COc3ccccc3O2)cs1 (configuration not stated),IC50,[1],12.6 µM (active)
CCN1CCN(c2nc(-c3cccnc3)nc3ccccc23)CC1,EC50,[3],> 50 µM (not active)
Cc1onc(-c2ccccc2)c1C(=O)NNC(=S)NC(=O)c1ccc(Cl)cc1Cl,IC50,Vero [6],22.7 µM (active)
same,EC50,[2],1.88 µM (active)
same,CC50,Vero [7],> 25 µM (active)
same,EC50,[8],0.441 µM (active)
same,EC50,Streptococcus,1.8 µM (active)
